How the values were obtained:
human tumor xenografts = conditions: animals; cited from earlier work
[1] = test system: chemotherapy refractory non-small cell lung cancer; conditions: cited from earlier work
[2] = test system: human lung cancer A549 cells; assay: Erlotinib accumulation and stereoisomerization in A549 cells and treatment media (LC-MS-MS); assay type: cell-based; conditions: for conversion of parent drug to the 1.78 minute stereoisomer in the presence of cells: media with A549 cells
Description: Analysis of erlotinib metabolism was carried out using erlotinib-resistance cancer cells (human lung cancer A549 cells). Cells were exposed to achievable clinical doses (3 μM) of erlotinib and then lysed at various times following exposure to the drug. Relative erlotinib concentrations were determined in the A549 cell treatment media and compared to levels of erlotinib containing media incubated in the absence of cells as a control. Erlotinib concentrations were assessed using a liquid chromatography dual mass spectrometric method. […] Based on an analysis of chemical structure, only one stereoisomer of the parent drug could account for the 1.78 minute variant form. The stereoisomer migrating at 1.78 minutes represents the L or S configuration of this molecule, wherein the configuration is determined by performing liquid chromatographic separation of the two stereoisomers followed by nuclear magnetic resonance (NMR) analysis of each.
Culture of A549 human lung cancer cells were carried out in Ham's F12 media with L-glutamine containing 10% fetal bovine serum, amphoterecin B, penicillin, and streptomycin. Cells were plated at a density of 300,000 cells per well in a 6 well plate. Cells were allowed to adhere overnight, media was aspirated and 3 mL of treatment media containing 3 μM erlotinib was added to each well. At the same time, 3 mL of the same media was added to wells that contained no cells as a control. One hundred μL of the media was removed from the wells immediately prior to harvesting the cells at various time points. The remaining media was removed and 250 μL of distilled deionized water was added to each well. Cells were also disrupted with a rubber policeman. Each media or cell extract sample was brought to a 1 mL volume with methanol and water (final concentration 50% methanol). Fifty μL of 0.4 M ZnSO4 was added to each sample. Samples were vortexed for 10 seconds and centrifuged at 13,000 RCF for 5 minutes. The supernatants from each were subjected to LC-MS-MS chromatographic analysis using a Waters® Model 2795 system equipped with a Waters® X-Terra® MS column. The mobile phase was composed of 70% methanol containing 0.1% formic acid at a flow rate of 0.15 mL per minute. Dual mass spectroscopy was performed with 394 for the initial mass and 278 for the daughter ion (after collision using argon gas). Dual mass spectroscopic analysis of midazolam was used as an internal standard and was performed at the same time using 326 as the mass for the parent and 291 for the daughter ion. Data was collected and analyzed using Masslynx™ version 3.4 software.

cyclin D1 protein = conditions: in vitro and in vivo, aerodigestive tract cancers; cited from earlier work

C#Cc1cccc(Nc2ncnc3cc(OCCOC)c(OCCOC)cc23)c1 [erlotinib, N-(3-ethynylphenyl)-6,7-bis(2-methoxyethoxy)quinazolin-4-amine]
dose inhibiting proliferation of human tumor xenografts (human tumor xenografts): ~10 mg/kg
toxicity at clinical dose ([1]; doses in the range of 150 mg, patients): little reported toxicity
dose showing the ability to affect tumor growth ([1]; patients with chemotherapy refractory non-small cell lung cancer): ~150 mg
intracellular concentration of erlotinib by 8 hours ([2]; A549 cells, 3 μM erlotinib, 8 hours): nearly undetectable levels
time at which intracellular concentrations of erlotinib peaked ([2]; A549 cells, 3 μM erlotinib, cell lysates): 4 h
total erlotinib concentrations in the treatment media over the time course ([2]; A549 treatment media, 3 μM erlotinib): did not vary significantly
stereoisomer present in the media in the absence of cells ([2]; control media without cells, throughout the time course): parent drug constituted the most abundant stereoisomer
conversion of parent drug to the 1.78 minute stereoisomer in the presence of cells ([2]; 4 hours): some conversion
conversion of parent drug to the 1.78 minute stereoisomer in the presence of cells ([2]; 8 hours): complete conversion
effect on expression of cyclin D1 protein (cyclin D1 protein): represses expression of cyclin D1 protein
